Test system: 616215-338-R-J1-PDC complex spheroid viability
Assay: Anticancer human tumor 616215-338-R-J1-PDC patient-derived colon adenocarcinoma cell line growth inhibition [RAS]
Conditions: for IC50: curve of first compound; for viability, T/C: stronger effect = lower value
Outline: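 Multi-cell-type spheroids: tumor cells plus HUVEC endothelial cells and mesenchymal stem cells. RAS-pathway inhibitors were combined with targeted agents, each dosed in half-log steps down from clinical Cmax, or from 10 microM when Cmax was unknown.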

[1] = second compound 0.0316 µM, first compound 0.000949 µM
[2] = second compound 0.0316 µM, first compound 0.003 µM
[3] = second compound 0.0316 µM, first compound 0.00949 µM
[4] = second compound 0.0316 µM, first compound 0.03 µM
[5] = second compound 0.0316 µM, first compound 0.0949 µM
[6] = second compound 0.0316 µM, first compound 0.3 µM
[7] = second compound 0.1 µM, first compound 0.000949 µM
[8] = second compound 0.1 µM, first compound 0.003 µM
[9] = second compound 0.1 µM, first compound 0.00949 µM
[10] = second compound 0.1 µM, first compound 0.03 µM
[11] = second compound 0.1 µM, first compound 0.0949 µM
[12] = second compound 0.1 µM, first compound 0.3 µM
[13] = second compound 0.316 µM, first compound 0.000949 µM
[14] = second compound 0.316 µM, first compound 0.003 µM
[15] = second compound 0.316 µM, first compound 0.00949 µM
[16] = second compound 0.316 µM, first compound 0.03 µM
[17] = second compound 0.316 µM, first compound 0.0949 µM
[18] = second compound 0.316 µM, first compound 0.3 µM
[19] = second compound 1 µM, first compound 0.000949 µM
[20] = second compound 1 µM, first compound 0.003 µM
[21] = second compound 1 µM, first compound 0.00949 µM
[22] = second compound 1 µM, first compound 0.03 µM
[23] = second compound 1 µM, first compound 0.0949 µM
[24] = second compound 1 µM, first compound 0.3 µM
[25] = second compound 3.16 µM, first compound 0.000949 µM
[26] = second compound 3.16 µM, first compound 0.003 µM
[27] = second compound 3.16 µM, first compound 0.00949 µM
[28] = second compound 3.16 µM, first compound 0.03 µM
[29] = second compound 3.16 µM, first compound 0.0949 µM
[30] = second compound 3.16 µM, first compound 0.3 µM
[31] = second compound 10 µM, first compound 0.000949 µM
[32] = second compound 10 µM, first compound 0.003 µM
[33] = second compound 10 µM, first compound 0.00949 µM
[34] = second compound 10 µM, first compound 0.03 µM
[35] = second compound 10 µM, first compound 0.0949 µM
[36] = second compound 10 µM, first compound 0.3 µM
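Further: spheroids exposed to agents for seven days before viability readout.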
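Wherever viability, T/C is given: 100% = DMSO vehicle control viability.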

Question: How did the IC50 (second compound 0.0316 µM) turn out when CC1(C)CCC(Nc2ncc(C(F)(F)F)c(-c3c[nH]c4c(P(C)(C)=O)c(C#N)ccc34)n2)CN1 (centres undefined) + C#Cc1c(F)ccc2cc(O)cc(-c3ncc4c(N5CC6CCC(C5)N6)nc(OCC56CCCN5CC(F)C6)nc4c3F)c12 was run?
Answer: 0.019 µM

Question: And the IC50 (second compound 0.1 µM)?
Answer: 0.0134 µM

Question: What about the IC50 (second compound 0.316 µM) of the same molecule?
Answer: 0.0189 µM

Question: And the IC50 (second compound 1 µM)?
Answer: 0.0107 µM

Question: What about the IC50 (second compound 3.16 µM) of the same molecule?
Answer: 0.00828 µM

Question: What about the IC50 (second compound 10 µM) of the same molecule?
Answer: 0.00591 µM

Question: What about the viability, T/C [1] of the same molecule?
Answer: 103%

Question: And the viability, T/C [2]?
Answer: 112%

Question: And the viability, T/C [3]?
Answer: 70.1%

Question: What about the viability, T/C [4] of the same molecule?
Answer: 37.4%

Question: What about the viability, T/C [5] of the same molecule?
Answer: 35.9%

Question: And the viability, T/C [6]?
Answer: 36.8%

Question: And the viability, T/C [7]?
Answer: 107%

Question: What about the viability, T/C [8] of the same molecule?
Answer: 105%

Question: And the viability, T/C [9]?
Answer: 56.7%

Question: And the viability, T/C [10]?
Answer: 37.7%

Question: And the viability, T/C [11]?
Answer: 31.8%

Question: And the viability, T/C [12]?
Answer: 28.2%

Question: What about the viability, T/C [13] of the same molecule?
Answer: 109%

Question: And the viability, T/C [14]?
Answer: 105%

Question: What about the viability, T/C [15] of the same molecule?
Answer: 66.5%

Question: And the viability, T/C [16]?
Answer: 40.5%

Question: And the viability, T/C [17]?
Answer: 32.3%

Question: What about the viability, T/C [18] of the same molecule?
Answer: 31.9%

Question: What about the viability, T/C [19] of the same molecule?
Answer: 117%

Question: What about the viability, T/C [20] of the same molecule?
Answer: 108%

Question: What about the viability, T/C [21] of the same molecule?
Answer: 52.1%

Question: What about the viability, T/C [22] of the same molecule?
Answer: 31.2%

Question: What about the viability, T/C [23] of the same molecule?
Answer: 27.8%

Question: And the viability, T/C [24]?
Answer: 31.2%

Question: What about the viability, T/C [25] of the same molecule?
Answer: 109%

Question: And the viability, T/C [26]?
Answer: 89.3%

Question: What about the viability, T/C [27] of the same molecule?
Answer: 45.8%

Question: And the viability, T/C [28]?
Answer: 27.8%

Question: What about the viability, T/C [29] of the same molecule?
Answer: 34.1%

Question: What about the viability, T/C [30] of the same molecule?
Answer: 36.7%

Question: What about the viability, T/C [31] of the same molecule?
Answer: 96.5%

Question: And the viability, T/C [32]?
Answer: 69.3%

Question: What about the viability, T/C [33] of the same molecule?
Answer: 37.5%

Question: And the viability, T/C [34]?
Answer: 24.7%

Question: And the viability, T/C [35]?
Answer: 32.5%

Question: What about the viability, T/C [36] of the same molecule?
Answer: 31.7%

Question: Which results are given for CCc1c2c(nc3ccc(O)cc13)-c1cc3c(c(=O)n1C2)COC(=O)[C@]3(O)CC + C#Cc1c(F)ccc2cc(O)cc(-c3ncc4c(N5CC6CCC(C5)N6)nc(OCC56CCCN5CC(F)C6)nc4c3F)c12?
Answer: IC50 (second compound 0.0316 µM): 0.0102 µM; IC50 (second compound 0.1 µM): 0.0107 µM; IC50 (second compound 0.316 µM): 0.0168 µM; IC50 (second compound 1 µM): 0.00772 µM; IC50 (second compound 3.16 µM): 0.00471 µM; IC50 (second compound 10 µM): < 0.000949 µM; viability, T/C [1]: 108%; viability, T/C [2]: 108%; viability, T/C [3]: 50.2%; viability, T/C [4]: 35%; viability, T/C [5]: 21.1%; viability, T/C [6]: 16.5%; viability, T/C [7]: 116%; viability, T/C [8]: 103%; viability, T/C [9]: 50.8%; viability, T/C [10]: 27.9%; viability, T/C [11]: 21.6%; viability, T/C [12]: 13.6%; viability, T/C [13]: 112%; viability, T/C [14]: 100%; viability, T/C [15]: 63%; viability, T/C [16]: 36%; viability, T/C [17]: 20.6%; viability, T/C [18]: 14%; viability, T/C [19]: 120%; viability, T/C [20]: 89.6%; viability, T/C [21]: 38.7%; viability, T/C [22]: 30.5%; viability, T/C [23]: 20.2%; viability, T/C [24]: 15.8%; viability, T/C [25]: 89.3%; viability, T/C [26]: 65.8%; viability, T/C [27]: 25.1%; viability, T/C [28]: 20%; viability, T/C [29]: 15.1%; viability, T/C [30]: 13.2%; viability, T/C [31]: 47.1%; viability, T/C [32]: 45%; viability, T/C [33]: 17.5%; viability, T/C [34]: 17.6%; viability, T/C [35]: 16.6%; viability, T/C [36]: 10.7%

— PubChem BioAssay AID2060898 (Molecular Pharmacology Branch, DTP, NCI, 2025)
